Measurements taken from patent US20160318866A1, “SUBSTITUTED BIPIPERIDINYL DERIVATIVES” (Bayer Pharma Aktiengesellschaft, priority 2013, published 2016).
Counter-ions that a name gives are not always drawn.

Target: T1, human α2C receptor (Homo sapiens, UniProt P18825)
T1 construct: expressed in transfected cells; host or cells: CHO cells, also recombinantly expressing chimeric G protein Gαqi3 and mitochondrial obelin (mtOb)
T1 sequence (P18825 1-462): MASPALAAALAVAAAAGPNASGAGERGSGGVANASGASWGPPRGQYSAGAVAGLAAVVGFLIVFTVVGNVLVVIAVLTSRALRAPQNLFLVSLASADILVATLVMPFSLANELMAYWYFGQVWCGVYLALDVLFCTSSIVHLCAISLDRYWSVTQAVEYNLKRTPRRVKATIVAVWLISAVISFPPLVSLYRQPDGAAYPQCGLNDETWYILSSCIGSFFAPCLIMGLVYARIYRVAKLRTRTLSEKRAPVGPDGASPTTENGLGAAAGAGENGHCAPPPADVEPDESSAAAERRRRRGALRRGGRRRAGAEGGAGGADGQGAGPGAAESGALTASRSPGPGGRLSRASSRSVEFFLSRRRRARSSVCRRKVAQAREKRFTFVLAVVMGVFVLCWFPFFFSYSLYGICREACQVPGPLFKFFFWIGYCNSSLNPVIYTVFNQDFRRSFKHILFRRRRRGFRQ
Experiment: Antagonism against the adrenoreceptor α2C (luminescence, recombinant CHO cell line)
Type: cell-based
Conditions: antagonism against adrenoreceptor α2C; noradrenaline 20 nM; tested up to 10 μM; read-out: IC50
How it was run: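 CHO cells expressing human α2C receptor with chimeric Gαqi3 and mitochondrial obelin, loaded with 2.5 μg/ml coelenterazine for one day at 30 °C.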

Row | SMILES | IC50 [nM]
1 | CC1CCCN(C2CCN(C(=O)c3ccc(C(=O)NC(CO)Cc4ccc(Cl)cc4)cc3)CC2)C1 (centres unmarked) [Example 53, N-[1-(4-chlorophenyl)-3-hydroxypropan-2-yl]-4-[(3-methyl-1,4′-bipiperidin-1′-yl)carbonyl]benzamide] | 198
2 | CCOC(=O)C1CCCN(C2CCN(C(=O)c3ccc(C(C)(C)C(=O)OCC)cc3)CC2)C1 (centres unmarked) [Example 29, 3-(Ethoxycarbonyl)-1-{1-[4-(1-ethoxy-2-methyl-1-oxopropan-2-yl)benzoyl]piperidin-4-yl}piperidine trifluoroacetic acid salt] | 29
3 | COC(C)(C)c1ccc(C(=O)N2CCC(N3CCCC(OCC4CC4)C3)CC2)cc1 (centres unmarked) [Example 122, [3-(Cyclopropylmethoxy)-1,4′-bipiperidin-1′-yl][4-(2-methoxypropan-2-yl)phenyl]methanone] | 9
4 | CCOC[C@@H]1CCCN(C2CCN(C(=O)c3ccc(C(C)(C)O)cc3)CC2)C1 (single isomer, unassigned; enantiomer 2) [Example 121, [3-(Ethoxymethyl)-1,4′-bipiperidin-1′-yl][4-(2-hydroxypropan-2-yl)phenyl]methanone (enantiomer 2)] | 5
5 | CC1CCCN(C2CCN(C(=O)c3ccc(-c4cnco4)cc3)CC2)C1 (centres unmarked) [Example 39, (3-Methyl-1,4′-bipiperidin-1′-yl) [4-(1,3-oxazol-5-yl)phenyl]methanone] | 244
6 | CCOC(=O)C1CCCN(C2CCN(C(=O)c3ccc(C(C)(C)OC)cc3)CC2)C1 (centres unmarked) [Example 42, Ethyl 1′-[4-(2-methoxypropan-2-yl)benzoyl]-1,4′-bipiperidine-3-carboxylate] | 26
7 | C[C@@H]1CCCN(C2CCN(C(=O)c3ccc(C(C)(C)O)c(F)c3)CC2)C1 [Example 113, [3-Fluoro-4-(2-hydroxypropan-2-yl)phenyl][(3R)-3-methyl-1,4′-bipiperidin-1′-yl]methanone] | 33
8 | CCOC(=O)c1ccc(C(=O)N2CCC(N3CCCC(C(=O)OCC)C3)CC2)cc1 (centres unmarked) [Example 2, 3-(Ethoxycarbonyl)-1-{1-[4-(ethoxycarbonyl)benzoyl]piperidin-4-yl}piperidine trifluoroacetic acid salt] | 120
9 | C[C@@H]1CCCN(C2CCN(C(=O)c3ccc(C(=O)NCc4ncc(Cl)cc4C(F)(F)F)cc3)CC2)C1 [Example 91, N-{[5-Chloro-3-(trifluoromethyl)pyridin-2-yl]methyl}-4-{[(3R)-3-methyl-1,4′-bipiperidin-1′-yl]carbonyl}benzamide] | 13
10 | CC1CCN(C(=O)c2ccc(C(=O)N3CCC(N4CCCC(C)C4)CC3)cc2)C(C)C1 (centres unmarked) [Example 46, (2,4-dimethylpiperidin-1-yl){4-[(3-methyl-1,4′-bipiperidin-1′-yl)carbonyl]phenyl} methanone] | 128
11 | Cc1cc(CN(C)C(=O)c2ccc(C(=O)N3CCC(N4CCCC(C)C4)CC3)cc2)on1 (centres unmarked) [Example 50, N-methyl-4-[(3-methyl-1,4′-bipiperidin-1′-yl)carbonyl]-N-[(3-methyl-1,2-oxazol-5-yl)methyl]benzamide] | 169
12 | CCOC(=O)C1CCCN(C2CCN(C(=O)c3ccc(C(C)(C)C)cc3)CC2)C1 (centres unmarked) [Example 1, Ethyl 1′-[(4-tert-butylphenyl)carbonyl]-1,4′-bipiperidine-3-carboxylate] | 38
13 | CC(C)(C)c1ccc(C(=O)N2CCC(N3CCCC(OC(=O)NC4CC4)C3)CC2)cc1 (centres unmarked) [Example 16, 1′-(4-tert-Butylbenzoyl)-1,4′-bipiperidin-3-yl cyclopropylcarbamate] | 380
14 | C[C@@H]1CCCN(C2CCN(C(=O)c3ccc(C(=O)NCc4cccc(OC(F)F)c4)cc3)CC2)C1 [Example 86, (R)—N-[3-(Difluoromethoxy)benzyl]-4-[(3-methyl-1,4′-bipiperidin-1′-yl)carbonyl]benzamide trifluoroacetic acid salt] | 180
15 | C[C@@H]1CCCN(C2CCN(C(=O)c3ccc(C(=O)NCc4cccnc4Cl)cc3)CC2)C1 [Example 83, (R)—N-[(2-Chloropyridin-3-yl)methyl]-4-{[(3R)-3-methyl-1,4′-bipiperidin-1′-yl]carbonyl}benzamide trifluoroacetic acid salt] | 7
16 | CCOC(=O)C1CCCN(C2CCN(C(=O)c3ccc(CC4(C)COC4)cc3)CC2)C1 (centres unmarked) [Example 24, Ethyl 1′-{4-[(3-methyloxetan-3-yl)methyl]benzoyl}-1,4′-bipiperidine-3-carboxylate] | 17
17 | CC1CCCN(C2CCN(C(=O)c3ccc(C4(C)COC4)cc3)CC2)C1 (centres unmarked) [Example 25, (3-Methyl-1,4′-bipiperidin-1′-yl) [4-(3-methyloxetan-3-yl)phenyl]methanone] | 101
18 | CC1CCCN(C2CCN(C(=O)c3ccc(C(=O)NC(C)(C)c4ccc(Cl)c(Cl)c4)cc3)CC2)C1 (centres unmarked) [Example 73, N-[2-(3,4-Dichlorophenyl)propan-2-yl]-4-[(3-methyl-1,4′-bipiperidin-1′-yl)carbonyl]benzamide trifluoroacetic acid salt] | 80
19 | CCc1nc(C2CCCN(C3CCN(C(=O)c4ccc(C(C)(C)O)cc4)CC3)C2)n[nH]1 (centres unmarked) [Example 62, [3-(5-Ethyl-1H-1,2,4-triazol-3-yl)-1,4′-bipiperidin-1′-yl][4-(2-hydroxypropan-2-yl)phenyl]methanone] | 154
20 | CC1CCCN(C2CCN(C(=O)c3ccc(C4(CN(C)C=O)CCC4)cc3)CC2)C1 (centres unmarked) [Example 67, N-Methyl-N-[(1-{4-[(3-methyl-1,4′-bipiperidin-1′-yl)carbonyl]phenyl}cyclobutyl)methyl]formamide trifluoroacetic acid salt] | 51
21 | CC1CCCN(C2CCN(C(=O)c3ccc(C4(CO)CC4)cc3)CC2)C1 (centres unmarked) [Example 31, 1-(1-{4-[1-(Hydroxymethyl)cyclopropyl]benzoyl}piperidin-4-yl)-3-methylpiperidine trifluoroacetic acid salt] | 403
22 | CC1CCCN(C2CCN(C(=O)c3ccc(C4(CN(C)S(C)(=O)=O)CCC4)cc3)CC2)C1 (centres unmarked) [Example 57, N-Methyl-N-[(1-{4-[(3-methyl-1,4′-bipiperidin-1′yl)carbonyl]phenyl}cyclobutyl)methyl]methanesulphonamide] | 18
23 | CC(c1ccccc1)N(C)C(=O)c1ccc(C(=O)N2CCC(N3CCC[C@@H](C)C3)CC2)cc1 (stereo partly drawn) [Example 43, N-Methyl-4-{[(3R)-3-methyl-1,4′-bipiperidin-1′-yl]carbonyl}-N-(1-phenylethyl)benzamide] | 39
24 | CC1CCCN(C2CCN(C(=O)c3ccc(C(=O)NCc4ccccc4C(F)(F)F)cc3)CC2)C1 (centres unmarked) [Example 81, 4-[(3-Methyl-1,4′-bipiperidin-1′-yl)carbonyl]-N-[2-(trifluoromethyl)benzyl]benzamide trifluoroacetic acid salt] | 57
25 | Cc1n[nH]c(C2CCCN(C3CCN(C(=O)c4ccc(C(C)(C)C)cc4)CC3)C2)n1 (centres unmarked) [Example 21, 1-[1-(4-tert-Butylbenzoyl)piperidin-4-yl]-3-(3-methyl-1H-1,2,4-triazol-5-yl)piperidine trifluoroacetic acid salt] | 49
26 | CC(C)(O)c1ccc(C(=O)N2CCC(N3CCCC(c4nc(CC5CCC5)n[nH]4)C3)CC2)cc1 (centres unmarked) [Example 69, {3-[5-(Cyclobutylmethyl)-4H-1,2,4-triazol-3-yl]-1,4′-bipiperidin-1′-yl}[4-(2-hydroxypropan-2-yl)phenyl]methanone] | 25
